For 36 molecules, Ki results are on record in ChEMBL document CHEMBL1123387 (J Med Chem, 1986).

Square brackets hold non-standard residues; d marks the D form. Peptide text beside a SMILES is read from it. * marks the point of attachment. Sta = CC(C)C[C@H](N)[C@@H](O)CC(=O)O; Isovaleryl = CC(C)CC(=O)*; NHIsopentyl = CC(C)CCN*; Boc = CC(C)(C)OC(=O)*

The target of one assay is T1, Cathepsin D (Bos taurus, UniProt P80209).
T1 sequence (P80209 whole entry): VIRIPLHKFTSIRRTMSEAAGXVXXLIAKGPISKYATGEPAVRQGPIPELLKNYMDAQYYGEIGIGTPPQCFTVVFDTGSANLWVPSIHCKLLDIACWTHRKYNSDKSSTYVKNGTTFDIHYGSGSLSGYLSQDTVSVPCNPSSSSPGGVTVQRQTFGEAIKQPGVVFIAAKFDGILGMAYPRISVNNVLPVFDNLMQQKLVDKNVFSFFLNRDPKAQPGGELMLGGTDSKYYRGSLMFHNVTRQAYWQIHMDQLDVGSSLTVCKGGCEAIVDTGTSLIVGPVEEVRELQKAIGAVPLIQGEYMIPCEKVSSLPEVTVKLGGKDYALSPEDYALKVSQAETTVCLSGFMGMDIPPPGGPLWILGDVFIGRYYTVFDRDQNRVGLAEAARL
As to the kind of experiment: Inhibition of cathepsin D.
One may read the Ki as a dissociation constant, usually derived from enzyme kinetics or from competition with a known ligand. Higher therefore signals weaker binding. With `CC(C)CCNC(=O)[C@H](C)NC(=O)C[C@H](O)[C@H](CC(C)C)NC(=O)[C@@H](NC(=O)[C@@H](NC(=O)CC(C)C)C(C)C)C(C)C`, the affinity corresponds to a Ki of 3.7 nM.
Still for that read-out and setting: in the case of `CC(C)CCNC(=O)[C@H](C)NC(=O)C[C@H](O)[C@H](CC(C)C)NC(=O)[C@@H](NC(=O)[C@@H](NC(=O)OC(C)(C)C)C(C)C)C(C)C` it was 1.1 nM.
Regarding `CCC(CC)C(=O)N[C@H](C(=O)N[C@@H](CC(C)C)[C@@H](O)CC(=O)N[C@@H](C)C(=O)NCCC(C)C)C(C)C`, the Ki came to 120 nM.
On the same count and under the same terms, the result for `CC(C)CCNC(=O)[C@H](C)NC(=O)C[C@H](O)[C@H](CC(C)C)NC(=O)[C@@H](NC(=O)C(C)C)C(C)C` reads 590 nM; that for `CC(C)CCNC(=O)[C@H](C)NC(=O)C[C@H](O)[C@H](CC(C)C)NC(=O)[C@@H](NC(=O)OC(C)C)C(C)C`, 620 nM; that for `CC(C)CCNC(=O)[C@H](C)NC(=O)C[C@H](O)[C@H](CC(C)C)NC(=O)[C@@H](NC(=O)OC(C)(C)C)C(C)C`, 2700 nM.
Molecule `CCC(C)C(=O)N[C@H](C(=O)N[C@@H](CC(C)C)[C@@H](O)CC(=O)N[C@@H](C)C(=O)NCCC(C)C)C(C)C` (stereo partly specified) returned an inhibition constant Ki of 230 nM.
Same read-out and setting: the result for `CC(C)CCNC(=O)[C@H](C)NC(=O)C[C@H](O)[C@H](CC(C)C)NC(=O)[C@@H](NC(=O)CC(C)C)C(C)C` reads 220 nM; that for `CC(C)CCNC(=O)[C@H](C)NC(=O)C[C@H](O)[C@@H](Cc1ccccc1)NC(=O)[C@H](NC(=O)CC(C)C)C(C)C`, 52 nM; that for `CC(C)CCNC(=O)[C@H](C)NC(=O)C[C@H](O)[C@H](Cc1ccccc1)NC(=O)[C@H](NC(=O)CC(C)C)C(C)C`, 1070 nM.
`CC(C)CCNC(=O)[C@H](C)NC(=O)C[C@H](O)[C@@H](Cc1ccccc1)NC(=O)[C@@H](NC(=O)OC(C)(C)C)C(C)C`: affinity was put at a Ki of 4860 nM.
The same measure, in the same setting: the result for `CC(C)CCNC(=O)[C@H](C)NC(=O)C[C@@H](O)[C@@H](CC(C)C)NC(=O)[C@@H](NC(=O)[C@@H](NC(=O)OC(C)(C)C)C(C)C)C(C)C` reads 445 nM.
In the case of `CC(C)CCNC(=O)[C@H](C)NC(=O)C[C@H](O)[C@@H](CC(C)C)NC(=O)[C@@H](NC(=O)[C@@H](NC(=O)CC(C)C)C(C)C)C(C)C`, the Ki is > 100 nM.
The same measure, in the same setting: the result for `CC(C)CCNC(=O)[C@H](C)NC(=O)C[C@H](O)[C@H](Cc1ccccc1)NC(=O)[C@@H](NC(=O)OC(C)(C)C)C(C)C` reads 370 nM.
Turning to `CC(C)CCNC(=O)[C@H](C)NC(=O)C[C@@H](O)[C@@H](CC(C)C)NC(=O)[C@@H](NC(=O)CC(C)C)C(C)C`, the affinity, expressed as Ki, was 1400 nM.
`CC(C)CCNC(=O)[C@H](C)NC(=O)C[C@H](C)[C@@H](CC(C)C)NC(=O)[C@@H](NC(=O)[C@@H](NC(=O)CC(C)C)C(C)C)C(C)C` yielded a Ki of 214 nM.
On the same count and under the same terms, the result for `CC(C)CCNC(=O)[C@H](C)NC(=O)C[C@H](C)[C@H](CC(C)C)NC(=O)[C@@H](NC(=O)[C@@H](NC(=O)CC(C)C)C(C)C)C(C)C` reads 400 nM; that for `CC(C)CCNC(=O)[C@H](C)NC(=O)C[C@H](O)[C@@H](CC(C)C)NC(=O)[C@@H](NC(=O)CC(C)C)C(C)C`, 2100 nM; that for `CC(C)CCNC(=O)[C@H](C)NC(=O)C[C@H](C)[C@H](Cc1ccccc1)NC(=O)[C@@H](NC(=O)OC(C)(C)C)C(C)C`, 930 nM.
Still for that read-out and setting: the result for `CC(C)CCNC(=O)[C@H](C)NC(=O)C[C@H](O)[C@@H](Cc1ccccc1)NC(=O)[C@@H](NC(=O)[C@@H](NC(=O)OC(C)(C)C)C(C)C)C(C)C` reads 95 nM; that for `CC(C)CCNC(=O)[C@H](C)NC(=O)C[C@H](O)[C@H](Cc1ccccc1)NC(=O)[C@@H](NC(=O)[C@@H](NC(=O)OC(C)(C)C)C(C)C)C(C)C`, 2.1 nM.
Still for that read-out and setting: in the case of `CC(C)CCNC(=O)[C@H](C)NC(=O)C[C@H](O)[C@@H](Cc1ccccc1)NC(=O)[C@@H](NC(=O)[C@@H](NC(=O)CC(C)C)C(C)C)C(C)C` it was 100 nM; in that of `CC(C)CCNC(=O)[C@H](C)NC(=O)C[C@H](O)[C@H](Cc1ccccc1)NC(=O)[C@@H](NC(=O)[C@@H](NC(=O)CC(C)C)C(C)C)C(C)C`, 1 nM; in that of `CC(C)CCNC(=O)[C@H](C)NC(=O)CC(=O)[C@H](CC(C)C)NC(=O)[C@@H](NC(=O)[C@@H](NC(=O)CC(C)C)C(C)C)C(C)C`, 25 nM.
Turning to `CC(C)CCNC(=O)[C@H](C)NC(=O)C[C@H](O)[C@H](CC(C)C)NC(=O)[C@@H](NC(=O)C(C)(C)C)C(C)C`, the Ki is 110 nM.
The same measure, in the same setting: in the case of `COC(=O)[C@H](C)NC(=O)C[C@H](O)[C@H](CC(C)C)NC(=O)[C@@H](NC(=O)CC(C)C)C(C)C` it was 1800 nM; in that of `CC(C)CCNC(=O)[C@H](C)NC(=O)C(C(=O)[C@H](CC(C)C)NC(=O)[C@@H](NC(=O)[C@@H](NC(=O)CC(C)C)C(C)C)C(C)C)[S+](C)C` (stereo partly specified), 107 nM; in that of `CC(C)CCNC(=O)[C@H](C)NC(=O)C[C@H](O)[C@H](CC(C)C)NC(=O)[C@H](C)NC(=O)[C@H](C)NC(=O)[C@H](Cc1ccccc1)NC(=O)OC(C)(C)C` (Boc-FAA[Sta]A-NHIsopentyl), 100 nM.
Still for that read-out and setting: the result for `COC(=O)[C@H](CC(C)C)NC(=O)[C@@H](NC(=O)[C@H](Cc1ccccc1)NC(=O)C[C@H](O)[C@H](CC(C)C)NC(=O)[C@H](C)NC(=O)[C@H](C)NC(=O)[C@H](Cc1ccccc1)NC(=O)OC(C)(C)C)C(C)C` (Boc-FAA[Sta]FVL-OMe) reads 60 nM.
Molecule `COC(=O)[C@H](CC(C)C)NC(=O)[C@@H](NC(=O)C[C@H](O)[C@H](CC(C)C)NC(=O)[C@H](C)NC(=O)[C@H](C)NC(=O)[C@H](Cc1ccccc1)NC(=O)OC(C)(C)C)C(C)C` (Boc-FAA[Sta]VL-OMe) yielded a Ki of 12 nM.
In turn, `COC(=O)[C@H](CC(C)C)NC(=O)[C@@H](NC(=O)[C@H](Cc1ccccc1)NC(=O)C[C@H](O)[C@H](CC(C)C)NC(=O)[C@H](C)NC(=O)[C@H](Cc1ccccc1)NC(=O)[C@H](Cc1ccccc1)NC(=O)OC(C)(C)C)C(C)C` (Boc-FFA[Sta]FVL-OMe) came in with a Ki of 12 nM.
Consider `COC(=O)[C@H](CC(C)C)NC(=O)[C@@H](NC(=O)[C@H](Cc1ccccc1)NC(=O)C[C@H](O)[C@H](CC(C)C)NC(=O)[C@H](C)NC(=O)[C@H](CC(C)C)NC(=O)[C@H](Cc1ccccc1)NC(=O)OC(C)(C)C)C(C)C` (Boc-FLA[Sta]FVL-OMe), for which the affinity, expressed as Ki, was 5.8 nM.
Consider `COC(=O)[C@H](C)NC(=O)C[C@H](O)[C@H](CC(C)C)NC(=O)[C@@H](NC(=O)[C@@H](NC(=O)CC(C)C)C(C)C)C(C)C` (Isovaleryl-VV[Sta]A-OMe), for which the affinity, expressed as Ki, was 90 nM.
On the same count and under the same terms, in the case of `COC(=O)[C@H](Cc1ccccc1)NC(=O)[C@H](C)NC(=O)C[C@H](O)[C@H](CC(C)C)NC(=O)[C@@H](NC(=O)CC(C)C)C(C)C` (Isovaleryl-V[Sta]AF-OMe) it was 23 nM; in that of `COC(=O)[C@H](CC(C)C)NC(=O)[C@H](C)NC(=O)C[C@H](O)[C@H](CC(C)C)NC(=O)[C@@H](NC(=O)CC(C)C)C(C)C` (Isovaleryl-V[Sta]AL-OMe), 43 nM.
Still for that read-out and setting: in the case of `CCOC(=O)C[C@H](O)[C@H](CC(C)C)NC(=O)[C@@H](NC(=O)[C@@H](NC(=O)CC(C)C)C(C)C)C(C)C` (Isovaleryl-Val-Val-[Sta]-OEt) it was 180 nM.

The target of the next assay is Pepsin A (Sus scrofa, UniProt P00791). As to the kind of experiment: Compound was tested for inhibition of pepsin.
Pepsin A, sequence (P00791 whole entry): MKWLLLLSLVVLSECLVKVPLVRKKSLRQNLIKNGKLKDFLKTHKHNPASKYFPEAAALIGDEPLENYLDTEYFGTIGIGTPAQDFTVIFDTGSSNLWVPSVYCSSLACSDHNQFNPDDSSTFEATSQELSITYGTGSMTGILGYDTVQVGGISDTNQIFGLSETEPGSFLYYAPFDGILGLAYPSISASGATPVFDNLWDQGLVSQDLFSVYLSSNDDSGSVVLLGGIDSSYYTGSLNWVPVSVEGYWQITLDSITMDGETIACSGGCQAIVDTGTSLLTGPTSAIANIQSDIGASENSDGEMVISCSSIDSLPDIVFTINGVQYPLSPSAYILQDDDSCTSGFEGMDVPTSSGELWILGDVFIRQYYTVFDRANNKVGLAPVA
The molecule `CC(C)CCNC(=O)[C@H](C)NC(=O)C[C@H](O)[C@H](CC(C)C)NC(=O)[C@H](C)NC(=O)[C@H](C)NC(=O)[C@H](Cc1ccccc1)NC(=O)OC(C)(C)C` (Boc-FAA[Sta]A-NHIsopentyl) displayed a Ki of 3.3 nM.
In turn, `COC(=O)[C@H](CC(C)C)NC(=O)[C@@H](NC(=O)[C@H](Cc1ccccc1)NC(=O)C[C@H](O)[C@H](CC(C)C)NC(=O)[C@H](C)NC(=O)[C@H](C)NC(=O)[C@H](Cc1ccccc1)NC(=O)OC(C)(C)C)C(C)C` (Boc-FAA[Sta]FVL-OMe) gave a Ki of 1.7 nM.
`COC(=O)[C@H](CC(C)C)NC(=O)[C@@H](NC(=O)C[C@H](O)[C@H](CC(C)C)NC(=O)[C@H](C)NC(=O)[C@H](C)NC(=O)[C@H](Cc1ccccc1)NC(=O)OC(C)(C)C)C(C)C` (Boc-FAA[Sta]VL-OMe) came in with a Ki of 2.8 nM.
Still for that read-out and setting: the result for `COC(=O)[C@H](CC(C)C)NC(=O)[C@@H](NC(=O)[C@H](Cc1ccccc1)NC(=O)C[C@H](O)[C@H](CC(C)C)NC(=O)[C@H](C)NC(=O)[C@H](Cc1ccccc1)NC(=O)[C@H](Cc1ccccc1)NC(=O)OC(C)(C)C)C(C)C` (Boc-FFA[Sta]FVL-OMe) reads 24 nM.
Same read-out and setting: in the case of `COC(=O)[C@H](CC(C)C)NC(=O)[C@@H](NC(=O)[C@H](Cc1ccccc1)NC(=O)C[C@H](O)[C@H](CC(C)C)NC(=O)[C@H](C)NC(=O)[C@H](CC(C)C)NC(=O)[C@H](Cc1ccccc1)NC(=O)OC(C)(C)C)C(C)C` (Boc-FLA[Sta]FVL-OMe) it was 0.64 nM.
